Converted amounts (≈) assume the structure as drawn.
Legend:
FIPV-infected CRFK cells = test: FIPV-induced apoptosis, Annexin V-FITC/PI assay; format: cell-based, feline; conditions: baicalin-treated FIPV-infected CRFK cells, 24 h after infection, p < 0.05
Method: CRFK cells were seeded in 96-well cell culture plates at a density of 1 × 10^4 cells/well and cultured at 37 °C in 5% CO2 until the cell density was greater than 90%. After the cells were washed twice with PBS, 50 μL of test compound and 50 μL of FIPV were added to each well simultaneously (at the same time, a cell control group with only 100 μL of MM and a viral control group with only 100 μL of FIPV were added). Three replicate wells were used for each group. […] Then, apoptosis was detected according to the instructions of the Annexin V-FITC/PI Apoptosis Detection Kit (MCE, USA). The results were observed using a fluorescence inverted microscope, and the fluorescence intensity was analyzed using ImageJ.

FIPV (BJ-01) = test: Cellular viral load by qPCR (FIPV-N gene); format: cell-based, feline infectious peritonitis virus
Method: CRFK cells were seeded in a 96-well cell culture plate at a density of 1 × 10^4 cells/well and cultured at 37 °C in 5% CO2 until the cell density was greater than 90%. After the cells were washed twice with PBS, 50 μL of compound and 50 μL of FIPV were added to each well simultaneously, and the plates were incubated at 37 °C and 5% CO2 for 12, 24, 36, 48, 60, and 72 h (at the same time, a cell control group with only 100 μL of MM and a viral control group with only 100 μL of FIPV were added). There were 3 replicate wells for each group and incubation time. After the liquid in the plate was discarded, the cells were washed twice with PBS. Then, the cells were digested by adding tryptic digest at 30 μL/well, the cell suspension was collected, and the cell precipitates were collected by centrifugation at 3000 rpm for 1 min. Total cellular RNA was extracted after the cell precipitates were resuspended in PBS according to the instructions of the FastPure Viral DNA/RNA Mini Kit Pro (Vazyme, Nanjing, China). Then, reverse transcription was performed using HiScript IV RT SuperMix for qPCR (+gDNA wiper) (Vazyme, Nanjing, China). The sequences of the primers used for the detection of the FIPV-N (GenBank: MK840958.1) were […] (F: 5′→3′) and […] (R: 5′→3′). The sequences of the primers used for the detection of the GAPDH genes were […] (F: 5′→3′) and […] (R: 5′→3′). […]

[1] = Cytotoxicity assay of the compounds (CCK-8); format: cell-based, feline; conditions: cat
Method: (§1) CRFK cells were seeded in 96-well cell culture plates at a density of 1 × 10^4 cells/well and incubated at 37 °C with 5% CO2 until the cell density reached more than 90%. Then, the medium was discarded, and the cells were washed twice with PBS. The compound to be tested was diluted in 10 successive gradients with MM at a 2-fold multiplicity (at the same time, there was a cell control group of 100 μL of MM, and 3 replicate wells were set for each concentration and group) and incubated at 37 °C with 5% CO2 for 72 h; then, the liquid in the plate was discarded and washed twice with PBS. Afterwards, the cytopathic ratios (CRs) of the compounds to cells were calculated according to the instructions of the Cell Counting Kit-8 (MCE, NJ, USA), and the CC50s of the compounds and the MNTCs at which the compounds could survive more than 90% of the cells were calculated using GraphPad Prism 10. In subsequent experiments, the final concentrations of the compounds after addition were the MNTCs of the compounds unless otherwise specified.

CRFK cells = test: Cytotoxicity assay of the compounds (CCK-8); format: cell-based, feline; conditions: cat, 72 h
Method: as §1

[2] = test system: PI3K-AKT signaling pathway and apoptosis pathway; test: 4D-LFQ proteomics of FIPV-infected CRFK cells; format: cell-based, feline; conditions: 48 h
From the text: According to the methods of Section 4.6, post-infection cells were collected at the appropriate time of infection and then quickly frozen in liquid nitrogen. The cell control group was named the control group (Group C), the virus control group was named the FIPV group (Group F), the compound treatment group was named the treatment group (Group T), and each group contained three replicate samples. Afterwards, they were sent to Shanghai Applied Protein Technology Co., Ltd. (Shanghai, China) for 4D-LFQ proteomics analysis.

[3] = treatment/FIPV comparison group

O=C(O)[C@H]1O[C@@H](Oc2cc3oc(-c4ccccc4)cc(=O)c3c(O)c2O)[C@H](O)[C@@H](O)[C@@H]1O [Baicalin]
fluorescence intensity per unit area of cells (early apoptosis, green fluorescence) (FIPV-infected CRFK cells): significantly lower
FIPV-N gene copy number (FIPV (BJ-01); 48 h compared with 36 h of baicalin treatment, p < 0.05): significantly decreased
time of peak FIPV-N gene copy number after baicalin treatment (FIPV (BJ-01); FIPV-infected CRFK cells, qPCR at 12-72 h): 36 h
CC50 at 72 h [1]: 114 µg/mL (≈ 257 µM)
MNTC (maximum noncytotoxic concentration) (CRFK cells): 31.36 µg/mL
AKT2 level (4D-LFQ) ([2]; treatment group vs FIPV group): significantly upregulated
AKT3 level (4D-LFQ) ([2]; treatment group vs FIPV group): tended to increase
EGFR level (4D-LFQ) ([2]; treatment group vs FIPV group): significantly upregulated
PIK3CA level (4D-LFQ) ([2]; treatment group vs FIPV group): significantly upregulated
BAX level (4D-LFQ) [2, 3]: downregulated but not significant
BCL2L level (4D-LFQ) [2, 3]: upregulated but not significant
CASP9 level (4D-LFQ) [2, 3]: significantly downregulated

Reference: publication PMC11431997, “Baicalin Inhibits FIPV Infection In Vitro by Modulating the PI3K-AKT Pathway and Apoptosis Pathway” (International Journal of Molecular Sciences, 2024)
